Reference: ChEMBL document CHEMBL5120922, “Discovery, Optimization, and Evaluation of Potent and Selective PI3Kδ-γ Dual Inhibitors for the Treatment of B-cell Malignancies” (J Med Chem, 2022)

Legend:
[1] = target: T1, Phosphatidylinositol 4,5-bisphosphate 3-kinase catalytic subunit delta isoform (Homo sapiens) (UniProt O00329); assay: Inhibition of N-terminal His6-tagged recombinant full length human PI3Kdelta expressed in baculovirus infected Sf21 insect cells at 1 uM by HTRF assay relative to control
T1 sequence (whole entry): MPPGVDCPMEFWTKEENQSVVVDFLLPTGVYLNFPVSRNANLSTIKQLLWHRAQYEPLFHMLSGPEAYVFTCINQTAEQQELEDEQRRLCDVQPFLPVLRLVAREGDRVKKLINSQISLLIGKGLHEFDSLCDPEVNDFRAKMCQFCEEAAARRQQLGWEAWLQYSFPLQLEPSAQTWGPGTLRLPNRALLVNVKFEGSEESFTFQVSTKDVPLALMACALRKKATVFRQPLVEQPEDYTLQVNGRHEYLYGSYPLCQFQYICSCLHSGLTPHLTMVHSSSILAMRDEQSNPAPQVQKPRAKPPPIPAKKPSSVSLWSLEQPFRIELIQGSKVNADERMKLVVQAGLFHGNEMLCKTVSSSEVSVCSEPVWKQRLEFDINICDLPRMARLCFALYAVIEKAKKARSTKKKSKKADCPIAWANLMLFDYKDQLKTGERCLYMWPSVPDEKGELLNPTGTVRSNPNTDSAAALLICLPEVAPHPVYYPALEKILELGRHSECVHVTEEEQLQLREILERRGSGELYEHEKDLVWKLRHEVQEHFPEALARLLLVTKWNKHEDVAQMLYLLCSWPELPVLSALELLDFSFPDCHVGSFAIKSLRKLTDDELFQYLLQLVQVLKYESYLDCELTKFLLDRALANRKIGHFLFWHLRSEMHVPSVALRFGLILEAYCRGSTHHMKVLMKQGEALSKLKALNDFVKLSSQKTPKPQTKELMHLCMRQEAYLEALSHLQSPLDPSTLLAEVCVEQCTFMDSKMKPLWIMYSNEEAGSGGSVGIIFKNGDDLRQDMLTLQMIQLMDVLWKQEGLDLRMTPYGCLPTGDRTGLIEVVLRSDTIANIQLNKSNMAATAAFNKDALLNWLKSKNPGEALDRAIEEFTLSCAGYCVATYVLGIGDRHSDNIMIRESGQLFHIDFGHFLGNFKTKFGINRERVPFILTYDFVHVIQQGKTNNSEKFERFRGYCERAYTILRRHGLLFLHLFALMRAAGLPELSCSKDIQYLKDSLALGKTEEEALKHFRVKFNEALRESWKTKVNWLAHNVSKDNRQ

[2] = target: Phosphatidylinositol 4,5-bisphosphate 3-kinase catalytic subunit beta isoform (Homo sapiens, UniProt P42338); assay: Inhibition of N-terminal His6-tagged recombinant full length human PI3Kbeta expressed in baculovirus infected Sf21 insect cells at 1 uM by HTRF assay relative to control
Sequence of Phosphatidylinositol 4,5-bisphosphate 3-kinase catalytic subunit beta isoform (P42338 whole entry, looked up, canonical isoform): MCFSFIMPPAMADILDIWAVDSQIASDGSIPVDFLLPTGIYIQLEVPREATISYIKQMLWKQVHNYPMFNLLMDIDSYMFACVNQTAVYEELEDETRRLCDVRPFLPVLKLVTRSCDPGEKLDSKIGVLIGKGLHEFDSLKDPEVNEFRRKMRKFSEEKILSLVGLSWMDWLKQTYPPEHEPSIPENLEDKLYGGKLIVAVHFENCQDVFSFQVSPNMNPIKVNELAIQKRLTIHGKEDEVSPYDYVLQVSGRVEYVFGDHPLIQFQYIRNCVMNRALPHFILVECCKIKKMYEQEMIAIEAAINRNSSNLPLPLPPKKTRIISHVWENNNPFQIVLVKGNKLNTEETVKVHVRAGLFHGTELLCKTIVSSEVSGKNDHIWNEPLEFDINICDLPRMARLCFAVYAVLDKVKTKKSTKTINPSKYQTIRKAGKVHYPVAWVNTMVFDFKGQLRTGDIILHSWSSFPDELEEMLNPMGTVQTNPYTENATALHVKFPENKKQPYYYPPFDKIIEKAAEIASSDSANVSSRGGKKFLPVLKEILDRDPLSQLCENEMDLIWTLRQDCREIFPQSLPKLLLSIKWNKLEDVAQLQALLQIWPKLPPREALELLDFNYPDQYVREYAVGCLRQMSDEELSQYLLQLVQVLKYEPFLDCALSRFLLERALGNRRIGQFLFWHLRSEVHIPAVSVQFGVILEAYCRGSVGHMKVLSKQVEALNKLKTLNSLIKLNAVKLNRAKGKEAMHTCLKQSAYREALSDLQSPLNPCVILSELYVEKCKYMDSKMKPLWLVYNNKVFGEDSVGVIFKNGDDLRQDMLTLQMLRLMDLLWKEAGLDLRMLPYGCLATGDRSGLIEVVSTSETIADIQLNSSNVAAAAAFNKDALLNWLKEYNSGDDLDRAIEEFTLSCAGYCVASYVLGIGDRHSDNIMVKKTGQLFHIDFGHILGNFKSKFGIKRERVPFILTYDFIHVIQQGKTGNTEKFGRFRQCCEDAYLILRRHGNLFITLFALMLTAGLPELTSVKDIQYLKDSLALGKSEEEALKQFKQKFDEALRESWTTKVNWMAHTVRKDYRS

[3] = target: Phosphatidylinositol 4,5-bisphosphate 3-kinase catalytic subunit alpha isoform (Homo sapiens, UniProt P42336); assay: Inhibition of N-terminal His6-tagged recombinant full length human PI3Kalpha expressed in baculovirus infected Sf21 insect cells at 1 uM by HTRF assay relative to control
Sequence of Phosphatidylinositol 4,5-bisphosphate 3-kinase catalytic subunit alpha isoform (P42336 whole entry, canonical isoform): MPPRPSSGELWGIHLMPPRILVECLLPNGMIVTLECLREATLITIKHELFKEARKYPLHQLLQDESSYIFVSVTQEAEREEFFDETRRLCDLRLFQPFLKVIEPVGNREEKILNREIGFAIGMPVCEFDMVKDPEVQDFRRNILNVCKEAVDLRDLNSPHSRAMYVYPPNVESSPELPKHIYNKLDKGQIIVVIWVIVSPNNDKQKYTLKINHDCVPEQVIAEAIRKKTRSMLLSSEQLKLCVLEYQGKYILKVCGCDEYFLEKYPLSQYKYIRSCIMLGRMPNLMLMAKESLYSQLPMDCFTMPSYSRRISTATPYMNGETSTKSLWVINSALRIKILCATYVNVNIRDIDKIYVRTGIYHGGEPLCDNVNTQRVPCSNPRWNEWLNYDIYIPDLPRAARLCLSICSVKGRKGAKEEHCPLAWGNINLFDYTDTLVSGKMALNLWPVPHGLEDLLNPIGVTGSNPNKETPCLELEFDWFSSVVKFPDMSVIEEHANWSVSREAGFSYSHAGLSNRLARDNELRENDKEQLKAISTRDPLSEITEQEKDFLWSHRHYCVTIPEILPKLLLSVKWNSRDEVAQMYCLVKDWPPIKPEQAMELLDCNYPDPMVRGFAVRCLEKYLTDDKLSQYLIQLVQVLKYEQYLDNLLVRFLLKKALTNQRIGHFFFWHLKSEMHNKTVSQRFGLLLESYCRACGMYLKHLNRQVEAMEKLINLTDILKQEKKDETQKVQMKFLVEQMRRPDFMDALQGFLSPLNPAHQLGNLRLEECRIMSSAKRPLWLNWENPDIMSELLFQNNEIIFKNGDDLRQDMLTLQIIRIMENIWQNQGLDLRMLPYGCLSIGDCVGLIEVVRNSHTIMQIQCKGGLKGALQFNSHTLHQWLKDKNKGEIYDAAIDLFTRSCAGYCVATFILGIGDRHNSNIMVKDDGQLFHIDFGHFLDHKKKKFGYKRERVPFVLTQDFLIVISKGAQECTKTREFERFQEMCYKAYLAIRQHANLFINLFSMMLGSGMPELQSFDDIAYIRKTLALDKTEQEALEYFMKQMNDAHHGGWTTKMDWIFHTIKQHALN

[4] = target: T1, Phosphatidylinositol 4,5-bisphosphate 3-kinase catalytic subunit delta isoform (Homo sapiens); assay: Inhibition of N-terminal His6-tagged recombinant full length human PI3Kdelta expressed in baculovirus infected Sf21 insect cells at 0.1 uM by HTRF assay relative to control
SU-DHL-6 = assay: Antiproliferative activity against human SU-DHL-6 cells assessed as cell growth inhibition measured after 72 hrs by MTT assay; assay type: functional, cell-based; conditions: SU-DHL-6, 72 h
[5] = target: T2, Phosphatidylinositol 4,5-bisphosphate 3-kinase catalytic subunit gamma isoform (Homo sapiens, UniProt P48736); assay: Inhibition of N-terminal His6-tagged recombinant full length human PI3Kgamma expressed in baculovirus infected Sf21 insect cells at 1 uM by HTRF assay relative to control
T2 sequence (P48736 whole entry, looked up, canonical isoform): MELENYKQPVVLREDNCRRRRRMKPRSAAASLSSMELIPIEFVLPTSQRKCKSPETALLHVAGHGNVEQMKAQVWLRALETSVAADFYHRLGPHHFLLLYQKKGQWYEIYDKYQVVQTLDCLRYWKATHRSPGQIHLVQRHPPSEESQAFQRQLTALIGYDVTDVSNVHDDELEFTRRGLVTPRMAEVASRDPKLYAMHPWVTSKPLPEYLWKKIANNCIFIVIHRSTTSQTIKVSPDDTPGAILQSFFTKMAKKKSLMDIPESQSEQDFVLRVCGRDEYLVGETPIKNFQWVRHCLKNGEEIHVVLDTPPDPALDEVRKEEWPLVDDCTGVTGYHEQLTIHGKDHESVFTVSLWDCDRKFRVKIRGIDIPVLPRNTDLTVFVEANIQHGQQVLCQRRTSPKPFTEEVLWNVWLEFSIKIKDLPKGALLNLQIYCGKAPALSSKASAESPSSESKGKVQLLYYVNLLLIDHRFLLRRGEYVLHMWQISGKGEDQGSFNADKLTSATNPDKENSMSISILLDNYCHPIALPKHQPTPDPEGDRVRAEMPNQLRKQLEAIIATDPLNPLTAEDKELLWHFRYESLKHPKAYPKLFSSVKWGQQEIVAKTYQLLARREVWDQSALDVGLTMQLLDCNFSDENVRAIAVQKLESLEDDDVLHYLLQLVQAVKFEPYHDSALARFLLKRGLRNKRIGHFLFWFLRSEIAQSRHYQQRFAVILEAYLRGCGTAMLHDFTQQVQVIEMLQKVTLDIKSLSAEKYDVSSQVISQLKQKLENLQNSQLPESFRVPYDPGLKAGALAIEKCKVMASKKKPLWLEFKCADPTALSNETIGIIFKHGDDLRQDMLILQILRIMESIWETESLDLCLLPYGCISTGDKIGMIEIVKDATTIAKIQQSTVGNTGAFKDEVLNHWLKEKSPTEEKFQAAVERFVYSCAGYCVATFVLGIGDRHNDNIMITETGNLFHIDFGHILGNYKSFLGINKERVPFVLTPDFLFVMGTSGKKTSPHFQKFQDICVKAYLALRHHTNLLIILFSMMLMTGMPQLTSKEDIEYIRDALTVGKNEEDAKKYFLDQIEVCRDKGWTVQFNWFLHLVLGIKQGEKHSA

[6] = target: T2, Phosphatidylinositol 4,5-bisphosphate 3-kinase catalytic subunit gamma isoform; assay: Inhibition of N-terminal His6-tagged recombinant full length human PI3Kgamma expressed in baculovirus infected Sf21 insect cells at 0.1 uM by HTRF assay relative to control
DOHH-2 = assay: Antiproliferative activity against human DOHH-2 cells assessed as cell growth inhibition measured after 72 hrs by MTT assay; assay type: functional, cell-based; conditions: DOHH-2, 72 h
SUD4 = assay: Antiproliferative activity against human SU-DHL-4 cells assessed as cell growth inhibition measured after 72 hrs by MTT assay; assay type: functional, cell-based; conditions: SU-DHL-4, 72 h

| SMILES | inhibition [1] [%] | inhibition [2] [%] | inhibition [3] [%] | inhibition [4] [%] | IC50 (SU-DHL-6) [nM] | inhibition [5] [%] | inhibition [6] [%] | IC50 (DOHH-2) [nM] | IC50 (SUD4) [nM] |
| --- | --- | --- | --- | --- | --- | --- | --- | --- | --- |
| N#Cc1c(N)nc(N)nc1N1[C@H](c2nc3cccc(Cl)c3c(=O)n2-c2cc(F)cc(F)c2)C[C@@H]2CCCC[C@@H]21 | 18 | 84 | 79 | 34 | 2750 | 49 | 85 | 3540 | 1830 |
| COc1ccc(-c2cccc3nc([C@@H]4CC[C@H](C)N4c4nc(N)nc(N)c4C#N)n(-c4ccccc4)c(=O)c23)cc1 |  | 44 | 5 |  | 700 |  | 41 | 1140 | 890 |
| C[C@H]1CC[C@@H](c2nc3cccc(Cl)c3c(=O)n2-c2ccccc2)N1c1nc(N)nc2[nH]ccc12 | 37 | 84 | 82 | 74 | 1800 | 41 | 88 | 3590 | 4930 |
| C[C@H]1CC[C@@H](c2nc3ccc(Cl)cc3c(=O)n2-c2cccnc2)N1c1nc(N)nc(N)c1C#N |  | 100 | 56 | 89 | 770 |  | 89 | 1050 | 900 |
| C[C@H]1CC[C@@H](c2nc3cccc(Cl)c3c(=O)n2-c2cccc(F)c2)N1c1nc(N)nc2[nH]cnc12 | -4 | 57 | 58 | 5 | 480 |  | 1 | 2610 | 350 |
| COc1cccc(C#Cc2cccc3nc([C@@H]4CC[C@H](C)N4c4nc(N)nc(N)c4C#N)n(-c4ccccc4)c(=O)c23)c1 |  | 42 | 16 | 9 | 670 |  | 35 | 450 | 510 |
| COc1ccc(C#Cc2cccc3nc([C@@H]4CC[C@H](C)N4c4nc(N)nc(N)c4C#N)n(-c4ccccc4)c(=O)c23)cc1 |  | 62 | 25 | 43 | 1040 |  | 83 | 3980 | 1050 |
| C[C@H]1CC[C@@H](c2nc3cccc(-c4cnn(C5CC5)c4)c3c(=O)n2-c2cccc(F)c2)N1c1nc(N)nc(N)c1C#N |  | 59 | 25 | 16 | 250 |  | 29 | 970 | 660 |
| C[C@H]1CC[C@@H](c2nc3cccc(-c4cncnc4)c3c(=O)n2-c2ccccc2)N1c1nc(N)nc(N)c1C#N |  | 49 | 26 |  | 290 |  | 57 | 1940 | 320 |
| C[C@H]1CC[C@@H](c2nc3cc(F)ccc3c(=O)n2-c2cccnc2)N1c1nc(N)nc(N)c1C#N |  | 44 | 39 | 7 | 1710 |  | 70 | 570 | 580 |
| C[C@H]1CC[C@@H](c2nc3cccc(-c4cnn(C5CC5)c4)c3c(=O)n2-c2cccnc2)N1c1nc(N)nc(N)c1C#N |  | 63 | 31 | 21 | 480 |  | 34 | 2130 | 700 |
| C[C@H]1CC[C@@H](c2nc3cccc(C#Cc4ccccn4)c3c(=O)n2-c2ccccc2)N1c1nc(N)nc(N)c1C#N |  | 41 | 11 | 6 | 600 |  | 29 | 790 | 320 |
| Cc1ccc(C#Cc2cccc3nc([C@@H]4CC[C@H](C)N4c4nc(N)nc(N)c4C#N)n(-c4ccccc4)c(=O)c23)cc1 |  | 78 | 35 | 56 | 1720 |  | 80 | 680 | 1230 |
| C[C@H](Nc1ncnc2nc[nH]c12)c1cc2cccc(Cl)c2c(=O)n1-c1ccccc1 [DUVELISIB] |  |  |  |  | 390 |  |  | 200 | 270 |
| C[C@H]1CC[C@@H](c2nc3cccc(F)c3c(=O)n2-c2cccnc2)N1c1nc(N)nc(N)c1C#N |  | 36 | 44 | 7 | 400 |  | 67 | 560 | 120 |
| Cc1ccccc1C#Cc1cccc2nc([C@@H]3CC[C@H](C)N3c3nc(N)nc(N)c3C#N)n(-c3ccccc3)c(=O)c12 |  | 78 | 23 | 62 | 2470 |  | 65 | 760 | 3580 |
| C[C@H]1CC[C@@H](c2nc3cccc(-c4cnn(C(F)F)c4)c3c(=O)n2-c2ccccc2)N1c1nc(N)nc(N)c1C#N |  | 46 | 26 |  | 470 |  | 20 | 670 | 330 |
| C[C@H]1CC[C@@H](c2nc3cccc(C#Cc4ccsc4)c3c(=O)n2-c2ccccc2)N1c1nc(N)nc(N)c1C#N |  | 15 | -2 | 5 | 520 |  | 49 | 650 | 540 |
| COc1cncc(-c2cccc3nc([C@@H]4CC[C@H](C)N4c4nc(N)nc(N)c4C#N)n(-c4cccnc4)c(=O)c23)c1 |  | 54 | 10 | 8 | 150 |  | 23 | 810 | 590 |
| C[C@H]1CC[C@@H](c2nc3cccc(C#Cc4ccccc4)c3c(=O)n2-c2ccccc2)N1c1nc(N)nc(N)c1C#N |  | 11 | 22 | -3 | 400 |  | 40 | 1840 | 670 |
| C[C@H]1CC[C@@H](c2nc3c(F)cccc3c(=O)n2-c2cccnc2)N1c1nc(N)nc(N)c1C#N |  | 23 | 30 | 6 | 920 |  | 52 | 440 | 620 |
| Cc1cccc(C#Cc2cccc3nc([C@@H]4CC[C@H](C)N4c4nc(N)nc(N)c4C#N)n(-c4ccccc4)c(=O)c23)c1 |  | 69 | 35 | 64 | 2620 |  | 83 | 4130 | 3310 |
| Cc1cccc2nc([C@@H]3CC[C@H](C)N3c3nc(N)nc(N)c3C#N)n(-c3cccnc3)c(=O)c12 |  | -3 | 20 | -2 | 230 |  | 21 | 130 | 50 |
| COc1ccc(-c2cccc3nc([C@@H]4CC[C@H](C)N4c4nc(N)nc(N)c4C#N)n(-c4ccccc4)c(=O)c23)cn1 |  | 77 | 14 |  | 390 |  | 29 | 630 | 600 |
| C[C@H]1CC[C@@H](c2nc3ccc(F)cc3c(=O)n2-c2cccnc2)N1c1nc(N)nc(N)c1C#N |  | 98 | 63 | 43 | 2660 |  | 91 | 1890 | 1220 |
